Assay results from ChEMBL document CHEMBL5550189, “Discovery of GS-7682, a Novel 4'-Cyano-Modified C-Nucleoside Prodrug with Broad Activity against Pneumo- and Picornaviruses and Efficacy in RSV-Infected African Green Monkeys” (J Med Chem, 2024).
Activity calls are given as the source filed them. The rule behind the calls is not given here.

Key:
[1] = Prodrug conversion in D-HBE-COPD cells assessed as ((2R,3S,4R,5S)-5-(4-aminopyrrolo[2,1-f][1,2,4]triazin-7-yl)-2-cyano-3,4-dihydroxytetrahydrofuran-2-yl)methyl tetrahydrogen triphosphate formation measured per million cells at 1 uM measured after 48 hrs by LC-MS/MS analysis; assay type: ADME, cell-based; settings: human
[2] = Cytotoxicity against human RD cells by MTS assay; assay type: toxicity, cell-based
[3] = tested on: Respiratory syncytial virus; experiment: Antiviral activity against Fluc-fused RSV A2 infected in D-HBE-As cells incubated for 3 days by ONE Glo luciferase assay; assay type: functional, organism-based; settings: human respiratory syncytial virus, 72 h
[4] = Cytotoxicity against human Hep-2 cells incubated for 4 to 5 days by Cell Titer Glo assay; assay type: toxicity, cell-based; settings: time 4-5 day
[5] = Selectivity index, ratio of CC50 for human HEp-2 cells to EC50 for RSV A2 infected in human HEp-2 cells; assay type: toxicity, cell-based; settings: read-out: Ratio CC50/EC50
[6] = Half life in Cynomolgous monkey at lung-deposited dose of 4 mg/kg, IT measured after 24 hrs by LC-MS/MS analysis; assay type: ADME, organism-based, Macaca fascicularis; settings: cynomolgus monkey, in vivo
[7] = Cmax in Cynomolgous monkey at lung-deposited dose of 4 mg/kg, IT measured after 24 hrs by LC-MS/MS analysis; assay type: ADME, organism-based, Macaca fascicularis; settings: cynomolgus monkey, in vivo
[8] = Drug metabolism in Cynomolgous monkey assessed as half life of (2R,3S,4R,5S)-5-(4-aminopyrrolo[2,1-f][1,2,4]triazin-7-yl)-3,4-dihydroxy-2-(hydroxymethyl)tetrahydrofuran-2-carbonitrile metabolite at 5 mg/kg, iv measured after 30 mins by LC-MS/MS analysis; assay type: ADME, organism-based, Macaca fascicularis; settings: cynomolgus monkey, in vivo, 0.5 h
[9] = Cmax in Cynomolgous monkey at 5 mg/kg, iv measured after 30 mins by LC-MS/MS analysis; assay type: ADME, organism-based, Macaca fascicularis; settings: cynomolgus monkey, in vivo
[10] = Drug metabolism in African green monkey assessed as Cmax of (2R,3S,4R,5S)-5-(4-aminopyrrolo[2,1-f][1,2,4]triazin-7-yl)-3,4-dihydroxy-2-(hydroxymethyl)tetrahydrofuran-2-carbonitrile metabolite at lung-deposited dose of 5.9 mg/kg, IT measured after 24 hrs by LC-MS/MS analysis; assay type: ADME, organism-based; settings: chlorocebus aethiops, in vivo, other
[11] = tested on: Influenza A virus; experiment: Anti-viral activity against Influenza A (H1N1) infected in MDCK cells by MTS assay; assay type: functional, organism-based; settings: H
[12] = tested on: Respiratory syncytial virus; experiment: Antiviral activity against RSV infected in African green monkey assessed as reduction in viral load in nasal swabs at lung-deposited dose of 1.6 to 7.6 mg/kg, IT qd for 6 days; assay type: functional, organism-based; settings: dose 1.6-7.6 mg/kg, time 6.0 day
[13] = Drug concentration in lung of Cynomolgous monkey measured per gram of tissue at 5 mg/kg, iv measured after 24 hrs by LC-MS/MS analysis; assay type: ADME, organism-based, Macaca fascicularis; settings: cynomolgus monkey, in vivo
[14] = Cytotoxicity against human A549 cells expressing hACE2 incubated for 28 hrs by Cell Titer Glo assay; assay type: toxicity, cell-based
[15] = Half life in African green monkey at lung-deposited dose of 5.9 mg/kg, IT measured after 24 hrs by LC-MS/MS analysis; assay type: ADME, organism-based; settings: chlorocebus aethiops, in vivo
[16] = tested on: SARS-CoV-2; experiment: Anti-viral activity against SARS-CoV-2 infected in human A549 cells expressing hACE2 by firefly reporter assay; assay type: functional, organism-based; settings: Severe acute respiratory syndrome coronavirus 2, A549
[17] = tested on: Respiratory syncytial virus; experiment: Antiviral activity against RSV A2 infected in human airway epithelium transwell culture assessed as decrease in viral RNA level by measuring log10 reduction in median viral load at 0.25 uM pretreated at apical side for 3 hrs followed by compound washout and subsequent viral infection at apical side for 3 hrs followed by removal of virus and recurrent addition of compound on day 1 and 2 at basolateral side measured on day 3 by RT-qPCR analysis; assay type: functional; settings: time 75 hrs
[18] = Drug metabolism in African green monkey assessed as half life of (2R,3S,4R,5S)-5-(4-aminopyrrolo[2,1-f][1,2,4]triazin-7-yl)-3,4-dihydroxy-2-(hydroxymethyl)tetrahydrofuran-2-carbonitrile metabolite at lung-deposited dose of 5.9 mg/kg, IT measured after 24 hrs by LC-MS/MS analysis; assay type: ADME, organism-based; settings: chlorocebus aethiops, in vivo, other
[19] = AUC (0 to 24 hrs) in African green monkey at lung-deposited dose of 5.9 mg/kg, IT measured after 24 hrs by LC-MS/MS analysis; assay type: ADME, organism-based; settings: chlorocebus aethiops, in vivo
[20] = tested on: Respiratory syncytial virus; experiment: Antiviral activity against RSV infected in African green monkey assessed as reduction in viral load in BAL at lung-deposited dose of 1.6 to 7.6 mg/kg, IT qd for 6 days measured on day 7 to 9 by RT-qPCR analysis; assay type: functional, organism-based; settings: dose 1.6-7.6 mg/kg, time 9.0 day
[21] = tested on: Respiratory syncytial virus; experiment: Antiviral activity against RSV A2 infected in human airway epithelium transwell culture assessed as decrease in viral RNA level by measuring log10 reduction in median viral load at 0.05 uM pretreated at apical side for 3 hrs followed by compound washout and subsequent viral infection at apical side for 3 hrs followed by removal of virus and recurrent addition of compound on day 1 and 2 at basolateral side measured on day 3 by RT-qPCR analysis; assay type: functional; settings: time 75 hrs
[22] = tested on: Respiratory syncytial virus; experiment: Antiviral activity against RSV A2 infected in D-HBE-COPD cells assessed as inhibition of intracellular virus replication; assay type: functional, organism-based; settings: human respiratory syncytial virus
[23] = Distribution coefficient, log D of compound measured after 30 mins by HPLC/UV analysis; assay type: physicochemical; settings: octanol/water
[24] = Cytotoxicity against MDCK cells by MTS assay; assay type: toxicity, cell-based, Canis lupus familiaris; settings: dog
[25] = Drug metabolism in Cynomolgous monkey assessed as AUC (0 to 24 hrs) of (2R,3S,4R,5S)-5-(4-aminopyrrolo[2,1-f][1,2,4]triazin-7-yl)-3,4-dihydroxy-2-(hydroxymethyl)tetrahydrofuran-2-carbonitrile metabolite at lung-deposited dose of 4 mg/kg, IT measured after 24 hrs by LC-MS/MS analysis; assay type: ADME, organism-based, Macaca fascicularis; settings: cynomolgus monkey, in vivo, other
[26] = tested on: Respiratory syncytial virus; experiment: Antiviral activity against Fluc-fused RSV A2 infected in Normal human bronchial epithelial cells incubated for 3 days by ONE Glo luciferase assay; assay type: functional, organism-based; settings: A2, Epithelial cell, 72 h
[27] = tested on: enterovirus D68; experiment: Anti-viral activity against EV-D68 (18952) infected in human RD cells by MTS assay; assay type: functional, organism-based; settings: Enterovirus D, 18952, RD
[28] = Drug metabolism in Cynomolgous monkey assessed as half life of (2R,3S,4R,5S)-5-(4-aminopyrrolo[2,1-f][1,2,4]triazin-7-yl)-3,4-dihydroxy-2-(hydroxymethyl)tetrahydrofuran-2-carbonitrile metabolite at lung-deposited dose of 4 mg/kg, IT measured after 24 hrs by LC-MS/MS analysis; assay type: ADME, organism-based, Macaca fascicularis; settings: cynomolgus monkey, in vivo, other
[29] = Prodrug conversion in human H1-HeLa cells assessed as ((2R,3S,4R,5S)-5-(4-aminopyrrolo[2,1-f][1,2,4]triazin-7-yl)-2-cyano-3,4-dihydroxytetrahydrofuran-2-yl)methyl tetrahydrogen triphosphate formation measured per million cells at 0.2 uM measured after 48 hrs by LC-MS/MS analysis; assay type: ADME, cell-based
[30] = tested on: Respiratory syncytial virus; experiment: Antiviral activity against Fluc-fused RSV A2 infected in D-HBE-COPD cells incubated for 3 days by ONE Glo luciferase assay; assay type: functional, organism-based; settings: human respiratory syncytial virus, 72 h
[31] = Prodrug conversion in Normal human bronchial epithelial cells assessed as ((2R,3S,4R,5S)-5-(4-aminopyrrolo[2,1-f][1,2,4]triazin-7-yl)-2-cyano-3,4-dihydroxytetrahydrofuran-2-yl)methyl tetrahydrogen triphosphate formation measured per million cells at 1 uM measured after 48 hrs by LC-MS/MS analysis; assay type: ADME, cell-based; settings: epithelial cell

Work on `COC(=O)[C@H](C)N[P@](=O)(OC[C@@]1(C#N)O[C@@H](c2ccc3c(N)ncnn23)[C@H](OC(=O)C(C)C)[C@@H]1OC(=O)C(C)C)Oc1ccccc1` yielded a Drug metabolism [1] of 85 pM, a CC50 [2] of over 2000 nM and an EC50 [3] of 6 nM. It also gave a CC50 [4] of 22.7 µM, a selectivity ratio [5] of 500 and a half-life [6] of 780 min. The Cmax [7] was 620 nM, the t1/2 [8] was 8.71 h and the Cmax [9] was 1990 nM. For the same molecule, the Cmax [10] was 220 nM, the EC50 [11] was over 2000 nM and the Activity [12] was “inactive”. It also gave a Drug uptake [13] of 4.28 nmol/g, a CC50 at 28 h [14] of 21.1 µM and a half-life [15] of 421 min. For the same molecule, the EC50 [16] was 4.75 µM, the Activity [17] was 2.5 log10/ml and the t1/2 [18] was 14.7 h. For the same molecule, the AUC(0-t) at 24 h [19] was 1.74 µM·h, the Activity [20] was “inactive” and the Activity [21] was 0.5 log10/ml. For the same molecule, the IC50 [22] was under 85 nM, the logD at 0.5 h [23] was 3 and the CC50 [24] was over 2000 nM. For the same molecule, the AUC [25] was 2.55 µM·h, the EC50 [26] was under 3 nM and the EC50 [27] was 90 nM. The t1/2 [28] was 38.8 h, the amount per cells [29] was 0.84 pmol/10^6 cells and the EC50 [30] was under 7 nM. It also gave a Drug metabolism [31] of 88.8 pM.
